Measurements taken from patent US9788567B2, “Ergothioneine-containing hens egg and method of preparing hens feed for producing same” (Origin Biotechnology Kabushikikaisha, priority 2013, dated 2017).

Columns and labels:
[1] = in vivo
Experimental: (§1) Thus, 14 ml of the obtained concentrate solution containing the ergothioneine were mixed in 120 g of the feed for hen used generally, it were mixed with the mixing stirrer 4, and the feed for the laying hen 41 was obtained. The feed for the laying hen 41 of 120 g per a hen was continuously fed to the laying hen for 36 days, dividing into four times a day.
The feeding and raising to the laying hen, and the measurement of the ergothioneine content in the egg yolk of the egg extracted in the meantime are performed in the same way as the example 2. In a fixed amount of the ergothioneine in the measurement of the ergothioneine content in the egg yolk of each egg here, the chromatogram of an internal standard substance and the ergothioneine are obtained from the egg yolk which preliminarily added the internal standard substance of the known amount by a high performance chromatography, the amount of the ergothioneine is measured from the ratio of the peak area of the ergothioneine to that of the internal standard substance.
In FIG. 4, one egg (a total of ten eggs) which each of the ten hens will lay on the 1 day is extracted for every lapsed days which start of the feed of the general feed for the hen, start of the feed of the laying hen, start of the feed of the general feed for the hen to stop of the feed of the laying hen and continue on the 71th day. The ergothioneine content in each egg yolk is measured, and the average value of the ergothioneine content in the egg yolk of these ten eggs is denoted by a graph.

[2] = in vivo; remark: listed apart in the source
Experimental: as §1
The feeding and raising to the laying hen, and the measure of the ergothioneine content in the egg white of the egg extracted in the meantime are performed in the following ways. Numbering was carried out to ten hens, respectively, and it stored one hen in the raising gauge, and one egg (a total of ten eggs) which each hen will lay on the 1 day was extracted, numbering was carried out to each egg, and the ergothioneine content in the egg white of each egg was measured. In a fixed amount of the ergothioneine, the chromatogram of an internal standard substance and the ergothioneine are obtained from the egg white which preliminarily added the internal standard substance of the known amount by a high performance chromatography, the amount of the ergothioneine is measured from the ratio of the peak area of the ergothioneine to that of the internal standard substance.
In the measurement of the ergothioneine content in the egg white, the feed for the hen used generally (the general feed for the hen) was fed for 5 days (minus fifth day to minus first day), the feed of the laying hen which mixed the concentrate solution containing the ergothioneine continuously was fed for 36 days (0 day to 36th day), the feed of the laying hen was stopped after that, the general feed for the hen was started, and it carried out till 71th day. […] The ergothioneine content in each egg white is measured, and the average value of the ergothioneine content in the egg white of these ten eggs is denoted by a graph.

Compound: C[N+](C)(C)[C@@H](Cc1c[nH]c(=S)[nH]1)C(=O)[O-] [ergothioneine]
- day on which ergothioneine content in the egg yolk returned to the initial value [1]: 58 days
- increase of ergothioneine content in the egg yolk over initial value [1]: about 8.5 times
- start of concentration of ergothioneine to the egg yolk [1]: second day
- day on which ergothioneine content in the egg white returned to the initial value [2]: 71 days
- increase of ergothioneine content in the egg white over initial value [2]: about 12.8 times
- start of concentration of ergothioneine to the egg white [2]: first day
